One series concerns the target T1, RXFP1 (Homo sapiens, UniProt Q9HBX9).
T1 construct: OVCAR5 cells expressing endogenous RXFP1; endogenous in cells; host or cells: OVCAR5 cells
T1 sequence (Q9HBX9 1-757): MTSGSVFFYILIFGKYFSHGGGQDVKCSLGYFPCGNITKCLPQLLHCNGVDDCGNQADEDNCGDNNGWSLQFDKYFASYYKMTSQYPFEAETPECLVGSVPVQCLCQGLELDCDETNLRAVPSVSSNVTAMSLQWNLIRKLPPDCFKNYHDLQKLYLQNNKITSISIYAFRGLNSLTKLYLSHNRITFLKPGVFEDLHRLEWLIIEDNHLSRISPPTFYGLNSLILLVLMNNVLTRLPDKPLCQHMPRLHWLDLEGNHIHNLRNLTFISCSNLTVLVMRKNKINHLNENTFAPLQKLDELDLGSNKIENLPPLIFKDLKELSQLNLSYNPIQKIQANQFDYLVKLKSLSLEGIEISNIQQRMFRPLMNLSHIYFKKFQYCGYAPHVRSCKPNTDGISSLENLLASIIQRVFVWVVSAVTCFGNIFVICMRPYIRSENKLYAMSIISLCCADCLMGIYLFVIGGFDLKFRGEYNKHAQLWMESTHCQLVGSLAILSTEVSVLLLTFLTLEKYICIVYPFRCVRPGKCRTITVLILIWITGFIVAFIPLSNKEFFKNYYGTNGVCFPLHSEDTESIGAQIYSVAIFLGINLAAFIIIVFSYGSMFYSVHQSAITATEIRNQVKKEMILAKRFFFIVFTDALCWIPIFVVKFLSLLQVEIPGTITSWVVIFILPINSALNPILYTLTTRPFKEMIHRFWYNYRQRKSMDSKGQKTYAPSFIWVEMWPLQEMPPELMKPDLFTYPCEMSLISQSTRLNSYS
Put plainly: OVCAR5 cAMP assay (HTRF), RXFP1 agonist activity. The format is cell-based. Particulars: for Emax: OVCAR-5, maximal cAMP relative to H2-relaxin maximum (100%), read-out: EMax, OVCAR 5 cells (cAMP). Summed up:
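OVCAR5 cells (endogenous RXFP1) pretreated 40 min at 37° C with 1 mM IBMX, then exposed to peptides in serum-free medium for 30 min at 37° C. Lysate cAMP read by HTRF; EC50 from variable-slope sigmoidal fit; Emax as % of H2-relaxin maximal cAMP in same run.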
For orientation: Cyclic AMP is a second messenger, typically raised through Gs and lowered through Gi signalling.

Series [1] can be described thus: Stability testing of peptides in human plasma or blood. It is filed as in vitro ADME. The note with it: 37° C.; for Human Plasma stability % remaining T = 0: human plasma or blood, T = 0 (reference), 5 μM. As to the method:
(§1) Prior to the testing of stability in plasma (or blood) of a peptide batch, its purity (HPLC-UV) was determined.
(§2) Rat and Human plasma: anti-coagulant sodium or lithium heparin.
(§3) Rat and Human blood: anti-coagulant sodium or lithium heparin. • Stock solution: • 100 μM solution of study compound in 50 mM Phosphate buffer pH 7.4. • 950 μL plasma (or blood) was pre-incubated for 5 min at 37° C. 50 μL of compound stock solution was added. Final compound concentration=5 μM. Vortex and transfer 1504, plasma (or blood) into an Eppendorf for each time point. The time points […] were carried out in duplicate for each species.
(§4) After incubation 150 μL, plasma (or blood) was extracted with 600 μL, Acetonitrile containing with 1% TFA. Then, vortexed and centrifuged 10 min at 14600 rpm. 200 μL supernatant was dried under N2. The sample was reconstituted in 200 μL of H2O/CH3CN 98/2+0.1% FA+50 ng/ml Labetalol and analyzed using the analytical system used in solubility and stability studies.
(§5) For determination of the amount of the remaining peptide, the peak areas of the target compound at t0 and each time point […] were compared, resulting in “% remaining peptide”, following the equation: % remaining peptide=[(peak area peptide time)×100]/peak area peptide t0. The stability is expressed as “% remaining peptide”.

Series [2] can be described thus: Stability testing of peptides in rat plasma or blood. It is filed as in vitro ADME. Particulars: 37° C.; for Rat plasma stability % remaining T = 0: rat plasma or blood, T = 0 (reference), 5 μM. On the procedure:
as §1, §2, §3, §4, §5

Series [3] can be described thus: Pharmacokinetic (PK) determination after i.v. or s.c. administration to rats. It is filed as in vivo, Sprague Dawley rats. The note with it: Sprague Dawley, Rat PK; for C0 / half-life: iv, 1 mg/kg i.v.; for C0: extrapolated plasma concentration at t=0, read-out: C0; for half-life / Cmax / Tmax / bioavailability: plasma; for half-life: read-out: T½ (converted); for Cmax / Tmax: sc, 3 mg/kg s.c.; for bioavailability: subcutaneous, 3 mg/kg s.c. vs 1 mg/kg i.v., dose-corrected AUC ratio. Summed up: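 Sprague Dawley rats received peptide in PBS at 1 mg/kg i.v. or 3 mg/kg s.c., dose corrected for salts, solvent and purity. Plasma analysed by LC/MS after protein precipitation; non-compartmental PK, BLQ values set to zero, F% as dose-corrected s.c./i.v. AUC ratio.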

Series [4] in a line: Solubility testing of peptides in buffer. It is filed as physicochemical. On the procedure: Prior to the testing of solubility of a peptide batch, its purity (HPLC-UV) was determined.
Acetate Buffer 50 mM pH4.5: 0.75 g […], 3H2O (Sigma 57545)+0.35 ml CH3CO2H 100% solution dissolved in Millipore water, adjusted to pH with diluted (1:1) CH3CO2H and diluted to 250 ml with Millipore water.
In a 4 ml Ependorph vial, an accurately weighed sample of compound was diluted in study media to obtain target concentration of 2, 6 or 10 mg/ml of pure compound. The sample vials were shacked (rock 'roll shaker) for ˜19 h. 3004, Aliquots ( ) were filtered through a Millipore “Solvinert” plate (0.45 μm—PTFE hydrophilic).
pH was measured with a micro electrode
Waters Acquity UPLC System with DAD detector
Column: Waters Peptide Column CSH C18 (130 Å; 1.7 μm; 50*2.1 mm)
Column temperature: 60° C.
Full loop (about 5 μL)—overfill factor 5
Weak et Strong wash: H2O/ACN (75/25; V/V); Seal wash: H2O/IsOH (95/5; V/V). Mobile phase:
Solvent A: 0.05% TFA in H2O; Solvent B: 0.035% TFA in CH3CN
Gradient: from 0 to 12 min B=2% to 60%, from 12 to 14 min B=60% to 100%. Column washing 100% B 1 min, column equilibration 2% B 2.5 min.
UV detector: wavelength: 220 nm.

Values after ≈ are worked out from the molar mass of the structure shown. Like-named read-outs stand apart in the source and are kept apart here. *1 amine or outer side, *2 acyl side, *3 side chain or, on linkers, in order; H or OH if unused. Where a SMILES comes first, the peptide text is derived from it. Side-chain parts run from the residue outwards. [ ]: non-standard residue; d: D form. The star is where a group is joined. X7 = CCCCCCCCCCCCCCCCCC(=O)N[C@@H](CCC(=O)N[C@@H](CCC(=O)N[C@@H](CCC(=O)NCCCOCCOCCOCCCNC(=O)COCC(=O)NCCCOCCOCCOCCCNC(=O)COCC(=O)*)C(=O)O)C(=O)O)C(=O)O; γGlu = O=C(O)[C@H](CCC(=O)[*:2])N[*:1]; Palmitoyl = CCCCCCCCCCCCCCCC(=O)*; Nle = CCCC[C@H](N)C(=O)O; AEEA = NCCOCCOCC(=O)O; Aib = CC(C)(N)C(=O)O

For `CCCCCCCCCCCCCCCC(=O)N[C@@H](CCC(=O)N[C@@H](CCC(=O)N[C@@H](CCC(=O)NCCOCCOCC(=O)NCCOCCOCC(=O)NCCOCCOCC(=O)NCCCC[C@H](NC(=O)[C@H](CCCCNC(C)=O)NC(=O)[C@H](CCCCN)NC(=O)[C@H](CCCNC(=N)N)NC(=O)C(C)(C)NC(=O)[C@H](CO)NC(=O)[C@H](Cc1c[nH]c2ccccc12)NC(=O)[C@@H](NC(=O)[C@H](CO)NC(=O)[C@H](CCCC)NC(=O)CNC(=O)[C@H](CCC(=O)O)NC(=O)C(C)(C)NC(=O)C(C)(C)NC(=O)[C@@H](NC(=O)[C@H](CCCCNC(C)=O)NC(=O)[C@H](C)NC(=O)[C@H](CCCNC(=N)N)NC(=O)[C@@H](NC(=O)[C@H](CCCCN)NC(=O)[C@H](CCC(=O)O)NC(=O)[C@H](CCCNC(=N)N)NC(=O)CNC(=O)[C@H](CCC(=O)O)NC(=O)[C@H](CC(C)C)NC(C)=O)C(C)C)[C@@H](C)CC)[C@@H](C)O)C(N)=O)C(=O)O)C(=O)O)C(=O)O` [compound 63] (Ac-LEGREKVRAK(Ac)I[Aib][Aib]EG[Nle]STWS[Aib]RKK(Ac)K([AEEA-AEEA-AEEA-γGlu-γGlu-γGlu-Palmitoyl])-NH2), at RXFP1, the maximal effect (Emax) (as a rule, the size of the effect at its maximum, as opposed to the concentration needed) worked out at 80%. Further, the “Human Plasma stability % remaining T = 0” value in series [1] stood at 100%. In series [1] (whole blood, human blood, read-out: Human stability in blood % remaining 1 h), the fraction remaining at 1 h, 5 µM turned out to be 93%. The fraction remaining at 4 h, 5 µM in series [1] (whole blood, human blood, read-out: Human stability in blood % remaining 4 h) was determined as 87%. Moreover, the “Rat plasma stability % remaining T = 0” value in series [2] was determined as 100%. Also, the fraction remaining at 1 h, 5 µM in series [2] (whole blood, rat blood, read-out: Rat stability in blood % remaining 1 h) stood at 95%. Besides, the share remaining at 4 h, 5 µM in series [2] (whole blood, rat blood, read-out: Rat stability in blood % remaining 4 h) was determined as 79%. Besides, in series [3], the C0 is 6.02 µM, the half-life is 343 min, the concentration peaked (Cmax) at 2400 nM and the time to peak (Tmax) (usually the time from dosing to the highest level) came out at 10 h. Further, the bioavailability – broadly, the share of a dose that reaches the circulation, judged against a reference dose that is usually intravenous – in series [3] came to 47%.

Regarding `CCCCCCCCCCCCCCCCCC(=O)N[C@@H](CCC(=O)N[C@@H](CCC(=O)N[C@@H](CCC(=O)NCCCOCCOCCOCCCNC(=O)COCC(=O)NCCCOCCOCCOCCCNC(=O)COCC(=O)NCCCC[C@H](NC(=O)[C@H](CCCCNC(C)=O)NC(=O)[C@H](CCCCN)NC(=O)[C@H](CCCNC(=N)N)NC(=O)C(C)(C)NC(=O)[C@H](CO)NC(=O)[C@H](Cc1c[nH]c2ccccc12)NC(=O)[C@@H](NC(=O)[C@H](CO)NC(=O)[C@H](CCCC)NC(=O)CNC(=O)[C@H](CCC(=O)O)NC(=O)C(C)(C)NC(=O)C(C)(C)NC(=O)[C@@H](NC(=O)[C@H](CCCCNC(C)=O)NC(=O)[C@H](C)NC(=O)[C@H](CCCNC(=N)N)NC(=O)[C@@H](NC(=O)[C@H](CCCCN)NC(=O)[C@H](CCC(=O)O)NC(=O)[C@H](CCCNC(=N)N)NC(=O)CNC(=O)[C@H](CCC(=O)O)NC(=O)[C@H](CC(C)C)NC(C)=O)C(C)C)[C@@H](C)CC)[C@@H](C)O)C(N)=O)C(=O)O)C(=O)O)C(=O)O` [compound 95] (Ac-LEGREKVRAK(Ac)I[Aib][Aib]EG[Nle]STWS[Aib]RKK(Ac)K(X7)-NH2), the maximum response (Emax) on RXFP1 was 87%. Moreover, the solubility (commonly the dissolved amount per volume that the medium holds) was found to be 5600 µg/mL (≈ 1310 µM) in series [4] (acetate buffer, pH 4.5, read-out: Solubility Acetate buffer pH 4.5) and 5600 µg/mL (≈ 1310 µM) in series [4] (phosphate buffer, pH 7.4, read-out: Solubility phosphate buffer pH 7.4).

On to `CCCCCCCCCCCCCCCC(=O)N[C@@H](CCC(=O)NCCCC[C@H](NC(=O)CC[C@H](NC(=O)CC[C@H](NC(=O)CC[C@H](NC(=O)COCCOCCNC(=O)COCCOCCNC(=O)COCCOCCNC(=O)[C@H](CCCCN)NC(=O)[C@H](CCCCN)NC(=O)[C@H](CCCCN)NC(=O)[C@H](CCCNC(=N)N)NC(=O)C(C)(C)NC(=O)[C@H](CO)NC(=O)[C@H](Cc1c[nH]c2ccccc12)NC(=O)[C@@H](NC(=O)[C@H](CO)NC(=O)[C@H](CCCC)NC(=O)CNC(=O)[C@H](CCC(=O)O)NC(=O)C(C)(C)NC(=O)C(C)(C)NC(=O)[C@@H](NC(=O)[C@H](CCC(N)=O)NC(=O)[C@H](C)NC(=O)[C@H](CCCNC(=N)N)NC(=O)[C@@H](NC(=O)[C@H](CCCCN)NC(=O)[C@H](CCC(=O)O)NC(=O)[C@H](CCCNC(=N)N)NC(=O)CNC(=O)[C@H](CCC(=O)O)NC(=O)[C@H](CC(C)C)NC(C)=O)C(C)C)[C@@H](C)CC)[C@@H](C)O)C(=O)O)C(=O)O)C(=O)O)C(N)=O)C(=O)O` [compound 107] (Ac-LEGREKVRAQI[Aib][Aib]EG[Nle]STWS[Aib]RKKK[AEEA][AEEA][AEEA][γGlu][γGlu][γGlu]K([γGlu-Palmitoyl])-NH2), for which, at RXFP1 (OVCAR5 cells, cAMP HTRF, read-out: EC50 (nM), OVCAR 5 cells (cAMP)), the 50% effective concentration (EC50) (usually the concentration needed to bring the measured effect to its halfway point) came out at 0.63 nM. In addition, at RXFP1, the Emax was found to be 85%. In series [1], the “Human Plasma stability % remaining T = 0” value is listed as 100%. In addition, in series [1] (human plasma, read-out: Human Plasma stability % remaining 1 h), the share remaining at 1 h, 5 µM was 98%. Moreover, in series [1] (human plasma, read-out: Human Plasma stability % remaining 4 h), the amount remaining at 4 h, 5 µM is 106%. Moreover, the “Rat plasma stability % remaining T = 0” value in series [2] is recorded as 100%. Further, the share remaining at 1 h, 5 µM in series [2] (rat plasma, read-out: Rat plasma stability % remaining 1 h) came out at 93%. In addition, the share remaining at 4 h, 5 µM in series [2] (rat plasma, read-out: Rat plasma stability % remaining 4 h) was 110%. Moreover, in series [3], the C0 was 2.6 µM, the half-life is 150 min, the concentration peaked (Cmax) at 1600 nM and the time of peak concentration (Tmax) stood at 8 h. The bioavailability in series [3] worked out at 27%.

The values are drawn from patent publication US10988523B2, “Modified lipidated Relaxin B chain peptides and their therapeutic use” (Sanofi, priority 2018, dated 2021).
